{"source": "patent US20250368651A1", "about": "(priority 2022, published 2025)", "key": {"[1]": {"molecular_target": "DNA Seq7 (UUAAGGAAGGU as deoxyribonucleotides)", "experiment": "FP binding assay, DNA Seq7", "conditions": "Seq 7; 0.5 μM SMN-C2", "procedure": "(§1) All synthetic DNA and RNA oligomers were purchased from Integrated DNA Technologies and reconstituted in nuclease-free water (Invitrogen #AM9932) at 1 mM. The concentration of the oligonucleotides at ˜0.1 mM was calibrated with the A260 value measured by a NanoDrop ND-1000 (Thermo, Waltham, MA, USA) and the predicted extinction coefficient (http://www.oligoevaluator.com) using Lamber-Beer's Law. The risdiplam analogues (1 mM in DMSO) were diluted in 2× assay buffer (40 mM HEPES, 200 mM NaCl for RNA; 40 mM HEPES, 200 mM NaCl, 1 mM MgCl2 for DNA) to make a 1 μM 2× working solution.\n(§2) A 1:2 dilution series (8 points) of each oligonucleotide was prepared in 20-30 μL water to desired concentrations (i.e., 1-128 μM). […] For fluorescence polarization measurement, 20 μL of the above 1× working solution was transferred into a 384-well, black, F-bottom microplates (Greiner Bio-One) in duplicates or triplicates. The plate was equilibrated at room temperature for 5 min before being read using a microplate reader (SYNERGY H1, BioTek; Excitation/Emission=360/460 nm) at 25° C. […] The mixture was then transferred into a microplate (20 μL each well) in duplicates for fluorescence polarization readout. The experimental data were analyzed using Prism 8 software (Graphpad Software, San Diego, CA, USA)."}, "[2]": {"molecular_target": "RNA Seq8 UGAAGGAAGUU", "experiment": "FP binding assay, RNA Seq8", "conditions": "Seq 8 UGAAGGAAGUU; 0.5 μM SMN-C2", "procedure": "as §1, §2"}, "[3]": {"molecular_target": "DNA Seq8 (UGAAGGAAGUU as deoxyribonucleotides)", "experiment": "FP binding assay, DNA Seq8", "conditions": "Seq 8; 0.5 μM SMN-C2", "procedure": "as §1, §2"}, "[4]": {"molecular_target": "DNA Seq10 (UAAAGGAAGGU as deoxyribonucleotides)", "experiment": "FP binding assay, DNA Seq10", "conditions": "Seq 10; 0.5 μM SMN-C2", "procedure": "as §1, §2"}, "[5]": {"molecular_target": "RNA Seq13 UGAAGAAAGGU", "experiment": "FP binding assay, RNA Seq13", "conditions": "Seq 13 UGAAGAAAGGU; 0.5 μM SMN-C2", "procedure": "as §1, §2"}, "[6]": {"molecular_target": "DNA Seq14 AGAAGGTAGGT", "experiment": "FP binding assay, DNA Seq14", "conditions": "Seq 14 AGAAGGTAGGT; 0.5 μM SMN-C2", "procedure": "as §1, §2"}, "[7]": {"molecular_target": "DNA Seq16 TGAAGGAAAGT", "experiment": "FP binding assay, DNA Seq16", "conditions": "Seq 16 TGAAGGAAAGT; 0.5 μM SMN-C2", "procedure": "as §1, §2"}, "[8]": {"molecular_target": "DNA S27 d([…])", "experiment": "FP binding assay, 10-nt DNA S27", "procedure": "as §1, §2"}, "[9]": {"molecular_target": "DNA S3 […]", "experiment": "FP binding assay, 18-nt DNA S3", "procedure": "as §1, §2"}, "[10]": {"molecular_target": "DNA S5 […]", "experiment": "FP binding assay, 18-nt DNA S5", "procedure": "as §1, §2"}, "[11]": {"molecular_target": "DNA S8 […]", "experiment": "FP binding assay, 18-nt DNA S8", "procedure": "as §1, §2"}, "[12]": {"molecular_target": "DNA S11 […]", "experiment": "FP binding assay, 18-nt DNA S11", "procedure": "as §1, §2"}, "[13]": {"molecular_target": "DNA S12 […]", "experiment": "FP binding assay, 18-nt DNA S12", "procedure": "as §1, §2"}, "[14]": {"molecular_target": "DNA S15 […]", "experiment": "FP binding assay, 18-nt DNA S15", "procedure": "as §1, §2"}, "[15]": {"molecular_target": "DNA S16 […]", "experiment": "FP binding assay, 18-nt DNA S16", "procedure": "as §1, §2"}, "[16]": {"molecular_target": "DNA S18 […]", "experiment": "FP binding assay, 18-nt DNA S18", "procedure": "as §1, §2"}, "[17]": {"molecular_target": "DNA S21 […]", "experiment": "FP binding assay, 18-nt DNA S21", "procedure": "as §1, §2"}, "[18]": {"molecular_target": "DNA S22 […]", "experiment": "FP binding assay, 18-nt DNA S22", "procedure": "as §1, §2"}, "[19]": {"molecular_target": "DNA S23 […]", "experiment": "FP binding assay, 18-nt DNA S23", "procedure": "as §1, §2"}, "[20]": {"molecular_target": "DNA S24 […]", "experiment": "FP binding assay, 18-nt DNA S24", "procedure": "as §1, §2"}, "[21]": {"test_system": "SMN2 exon 7 splicing", "experiment": "Cell-based SMN2 splicing assay in 293T cells (minigene)", "parameters": "species or system human", "conditions": "Homo sapiens, HEK-293T"}, "[22]": {"test_system": "dsDNA formed by annealing Seq6 and its reverse complement, Seq6_RC", "experiment": "ITC, dsDNA (annealed Seq6 and Seq6_RC)", "type": "binding", "conditions": "dsDNA of Seq6 and Seq6_RC", "procedure": "The figures are representation of three independent experiments.\nIsothermal calorimetric titrations were carried out on a Malvern Analytical MicroCal PEAQ-ITC at 25° C. The DNA (see above for the calibration procedure) and the SMN-C2 water solutions containing the desired amount of the materials were freeze-dried overnight (Labconco FreeZone 4.5 Liter Benchtop Freeze Dry System) and then re-suspended in appropriate volume of buffer containing 5% DMSO, 100 mM NaCl and 30 mM MES buffer at pH 6.0 (e.g., 350 μL for DNA Seq6, 80 μL for SMN-C2). […] The analysis was performed using the instrument's MicroCal PEAQ-ITC Analysis Software (Malvern Analytical). The ITC data was fit using the One Set of Sites mode to calculate the dissociate constant (Kd), binding stoichiometry, and the changes in enthalpy and Gibbs free energy. In differential power (DP) trace, the baseline was subtracted for better visualization, which has no impact on calculations."}, "[23]": {"experiment": "in vitro", "conditions": "human"}, "[24]": {"experiment": "in vitro", "conditions": "human", "remark": "listed apart in the source"}}, "note": "Read-outs that look alike come from different tables or passages of the source."}
{"compound": "CCN1CCN(c2ccc3cc(-c4cn5cc(C)nc(C)c5n4)c(=O)oc3c2)C[C@@H]1C", "note": "[SMN-C2, (S)-3-(6,8-dimethylimidazo[1,2-a]pyrazin-2-yl)-7-(4-ethyl-3-methylpiperazin-1-yl)-2H-chromen-2-one]", "values": [{"measurement": "Kd", "setting": "[1]", "result": "> 100", "unit": "µM"}, {"measurement": "Kd", "setting": "[2]", "result": "> 100", "unit": "µM"}, {"measurement": "Kd", "setting": "[3]", "result": "14.7 ± 0.7", "unit": "µM"}, {"measurement": "Kd", "setting": "[4]", "result": "> 100", "unit": "µM"}, {"measurement": "Kd", "setting": "[5]", "result": "> 100", "unit": "µM"}, {"measurement": "Kd", "setting": "[6]", "result": "> 100", "unit": "µM"}, {"measurement": "Kd", "setting": "[7]", "result": "27.4 ± 6", "unit": "µM"}, {"measurement": "Kd", "setting": "[8]", "result": "11.6 ± 1.7", "unit": "µM"}, {"measurement": "Kd", "setting": "[9]", "result": "21.7 ± 2.7", "unit": "µM"}, {"measurement": "Kd", "setting": "[10]", "result": "42.3 ± 4.2", "unit": "µM"}, {"measurement": "Kd", "setting": "[11]", "result": "12.4 ± 0.4", "unit": "µM"}, {"measurement": "Kd", "setting": "[12]", "result": "26.3 ± 1.2", "unit": "µM"}, {"measurement": "Kd", "setting": "[13]", "result": "37.4 ± 6.7", "unit": "µM"}, {"measurement": "Kd", "setting": "[14]", "result": "31.4 ± 4", "unit": "µM"}, {"measurement": "Kd", "setting": "[15]", "result": "48.9 ± 12.2", "unit": "µM"}, {"measurement": "Kd", "setting": "[16]", "result": "> 50", "unit": "µM"}, {"measurement": "Kd", "setting": "[17]", "result": "> 50", "unit": "µM"}, {"measurement": "Kd", "setting": "[18]", "result": "44.7 ± 7.2", "unit": "µM"}, {"measurement": "Kd", "setting": "[19]", "result": "> 50", "unit": "µM"}, {"measurement": "Kd", "setting": "[20]", "result": "36.8 ± 11.4", "unit": "µM"}, {"measurement": "EC50", "setting": "[21]; Table 3, read-out: SMN2 Splicing EC50", "result": "0.0635 ± 0.0296", "unit": "µM"}, {"measurement": "EC50", "setting": "[21]; cell-based SMN2 splicing assay in 293T cells, read-out: SMN2 EC50", "result": "0.26 ± 0.13", "unit": "µM"}, {"measurement": "binding to dsDNA (ITC)", "setting": "[22]", "result": "abrogated most of the binding affinity"}, {"measurement": "CC50", "setting": "[23]", "result": "> 30", "unit": "µM"}, {"measurement": "CC50", "setting": "[24]", "result": "> 30", "unit": "µM"}]}
